Here are results for 47 molecules from US20230115350A1 (Cedilla Therapeutics, Inc., priority 2021, published 2023).

The IC50 is the midpoint of a concentration-inhibition curve.

Bounds are passed on as bounds.

TEAD1 protein (YAP Binding Domain), sequence (P28347 209-426 limits assumed): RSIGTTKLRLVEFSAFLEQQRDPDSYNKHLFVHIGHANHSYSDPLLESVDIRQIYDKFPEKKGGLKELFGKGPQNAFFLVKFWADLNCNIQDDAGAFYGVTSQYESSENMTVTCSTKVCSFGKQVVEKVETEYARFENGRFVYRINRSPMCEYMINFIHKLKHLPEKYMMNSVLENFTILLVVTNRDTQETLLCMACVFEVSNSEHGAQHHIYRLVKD

This assay deals with TEAD1 protein (YAP Binding Domain) (Homo sapiens, UniProt P28347). Briefly: TEAD1 lipid pocket compound displacement assay (TR-FRET, Cy5-probe). Conditions: 60 minutes incubation at room temperature; TR-FRET 665 nm/620 nm; read-out: CDA IC50. Here is the method:
Compound Displacement Assay.
A TEAD1 lipid pocket displacement assay was carried out according to the following protocol. Purified His-tagged TEAD1 protein (YAP Binding Domain) was pre-mixed with a Cy5-probe (Cy5-conjugated to a small molecule that binds in the TEAD1 lipid pocket) and Terbium-labeled anti-His antibody (Cisbio Cat 61HI2TLB). The binding of the Cy5-probe to anti-His-Tb/His-tag TEAD1 complex yielded a TR-FRET signal. […] After 60 minutes incubation at room temperature of compounds with the His-TEAD1/anti-His-Tb/Cy5-probe complex, the plate was read on a plate reader (BMG ClarioStar Cat 430-1300) using TR-FRET mode with wavelengths of 665 nm/620 nm. The potency of compounds as TEAD1 lipid pocket binders was determined by IC50 value generated using a non-linear 4 parameter curve fit.
(In general: In TR-FRET formats the signal depends on donor and acceptor labels being close together.)
Consider `C=CC(=O)Nc1ccc(C(=O)Nc2cccc(F)c2)c(F)c1` [Compound 118, 4-acrylamido-2-fluoro-N-(3-fluorophenyl)benzamide], for which the IC50 was more than 2000 nM.
To `C=CC(=O)Nc1ccc(OCc2cccc(F)c2)cc1C1CC1` [Compound 4, N-(2-cyclopropyl-4-((3-fluorobenzyl)oxy)phenyl)acrylamide] belongs 250 to 500 nM.
To `C=CC(=O)Nc1ccc(OCc2cccc(F)c2)c(OC)c1` [Compound 6, N-(4-((3-fluorobenzyl)oxy)-3-methoxyphenyl)acrylamide] belongs 250 to 500 nM; to `C=CC(=O)Nc1ccc(OCc2ccc(Br)nc2)c(F)c1` [Compound 68, N-(4-((6-bromopyridin-3-yl)methoxy)-3-fluorophenyl)acrylamide], 500 to 2000 nM.
Then `C=CC(=O)Nc1ccc(OCc2cccc(C)c2)c(F)c1` [Compound 93, N-(3-fluoro-4-((3-methylbenzyl)oxy)phenyl)acrylamide], with not above 250 nM.
Take `C=CC(=O)Nc1ccc(OCc2cccc(F)c2)c(C#N)c1` [Compound 130, N-(3-cyano-4-((3-fluorobenzyl)oxy)phenyl)acrylamide]: the IC50 was 500 to 2000 nM.
To `C=CC(=O)Nc1ccc(OCc2cc(C(=O)OC)ccc2Cl)c(F)c1` [Compound 87, methyl 3-((4-acrylamido-2-fluorophenoxy)methyl)-4-chlorobenzoate] belongs 500 to 2000 nM; to `C=CC(=O)Nc1ccc(Oc2ccc(C3CCCCC3)cc2)c(F)c1` [Compound 102, N-(4-(4-cyclohexylphenoxy)-3-fluorophenyl)acrylamide], not above 250 nM.
To `C=CC(=O)Nc1ccc(OCc2cccc(F)c2)c(C2CC2)c1` [Compound 2, N-(3-cyclopropyl-4-((3-fluorobenzyl)oxy)phenyl)acrylamide] belongs 250 to 500 nM; to `C=CC(=O)Nc1ccc(C2COc3ccccc3C2=O)c(F)c1` (centres unmarked) [Compound 131, N-(3-fluoro-4-(4-oxochroman-3-yl)phenyl)acrylamide], 500 to 2000 nM; to `C=CC(=O)Nc1ccc(OC(C)c2ccccc2Cl)c(F)c1` (centres unmarked) [Compound 123, N-(4-(1-(2-chlorophenyl)ethoxy)-3-fluorophenyl)acrylamide], 500 to 2000 nM.
As to `C=CC(=O)Nc1ccc(OCc2ccc(C(=O)OC)s2)c(F)c1` [Compound 62, methyl 5-((4-acrylamido-2-fluorophenoxy)methyl)thiophene-2-carboxylate], the IC50 lay within 500 to 2000 nM.
Then `C=CC(=O)Nc1ccc(OCC2CCC(F)(F)CC2)c(C)c1` [Compound 48, N-(4-((4,4-difluorocyclohexyl)methoxy)-3-methylphenyl)acrylamide], with not above 250 nM; and `C=CC(=O)Nc1ccc(C2CCc3ccccc3C2)c(F)c1` (centres unmarked) [Compound 119, N-(3-fluoro-4-(1,2,3,4-tetrahydronaphthalen-2-yl)phenyl)acrylamide], with 500 to 2000 nM; and `C=CC(=O)Nc1ccc(OCc2ccsc2Cl)c(F)c1` [Compound 61, N-(4-((2-chlorothiophen-3-yl)methoxy)-3-fluorophenyl)acrylamide], with 500 to 2000 nM.
Then `C=CC(=O)Nc1ccc(OCc2cccc(F)c2)cc1CC(N)=O` [Compound 11, N-(2-(2-amino-2-oxoethyl)-4-((3-fluorobenzyl)oxy)phenyl)acrylamide], with more than 2000 nM; and `O=C(NS(=O)(=O)C1CC1)c1ccc(OCC2CCC(F)(F)CC2)c(F)c1` [Compound 37, N-(cyclopropylsulfonyl)-4-((4,4-difluorocyclohexyl)methoxy)-3-fluorobenzamide], with 500 to 2000 nM.
To `C=CC(=O)Nc1cc(F)c(OCc2cccc(F)c2)cn1` [Compound 128, N-(4-fluoro-5-((3-fluorobenzyl)oxy)pyridin-2-yl)acrylamide] belongs not above 250 nM.
With `CS(=O)(=O)Nc1ccc(OCC2CCC(F)(F)CC2)c(F)c1` [Compound 33, N-(4-((4,4-difluorocyclohexyl)methoxy)-3-fluorophenyl)methane sulfonamide], the concentration for half-maximal inhibition (IC50) lay within 500 to 2000 nM.
To `C=CC(=O)Nc1ccc(OCc2cccc(F)c2)cc1C` [Compound 47, N-(4-((3-fluorobenzyl)oxy)-2-methylphenyl)acrylamide] belongs 500 to 2000 nM.
To `C=CC(=O)Nc1ccc(OCc2ccncc2)c(F)c1` [Compound 66] belongs more than 2000 nM.
Consider `C#Cc1cccc(COc2ccc(NC(=O)C=C)cc2F)c1` [Compound 25, N-(4-((3-ethynylbenzyl)oxy)-3-fluorophenyl)acrylamide], for which the IC50 lay in the range of 250 to 500 nM.
As for `C=CC(=O)Nc1ccc(NC(=O)C2CCC(F)(F)CC2)c(F)c1` [Compound 32, N-(4-acrylamido-2-fluorophenyl)-4,4-difluorocyclohexanecarboxamide], the IC50 was not above 250 nM.
To `C=CC(=O)Nc1ccc(OCc2cccc(F)c2)c(Cl)c1` [Compound 46, N-(3-chloro-4-((3-fluorobenzyl)oxy)phenyl)acrylamide] belongs not above 250 nM; to `C=CC(=O)Nc1ccc(OCc2cc(Cl)ccc2Cl)c(F)c1` [Compound 79, N-(4-((2,5-dichlorobenzyl)oxy)-3-fluorophenyl)acrylamide], 500 to 2000 nM.
Then `C=CC(=O)Nc1ccc(OCc2cccc(F)c2F)c(F)c1` [Compound 95, N-(4-((2,3-difluorobenzyl)oxy)-3-fluorophenyl)acrylamide], with 250 to 500 nM; and `C=CC(=O)Nc1ccc(OCc2cccc(F)c2)c2c1CCCO2` [Compound 14, N-(8-((3-fluorobenzyl)oxy)chroman-5-yl)acrylamide], with more than 2000 nM; and `O=C(O)c1ccc(F)c(OCC2CCC(F)(F)CC2)c1` [Compound 36, 3-((4,4-difluorocyclohexyl)methoxy)-4-fluorobenzoic acid], with 250 to 500 nM.
Then `C=CC(=O)Nc1ccc(OCc2cccnc2C)c(F)c1` [Compound 75, N-(3-fluoro-4-((2-methylpyridin-3-yl)methoxy)phenyl)acrylamide], with more than 2000 nM; and `C=CC(=O)Nc1ccc2c(c1)N(C)CC(c1cccc(F)c1)O2` (centres unmarked) [Compound 12, N-(2-(3-fluorophenyl)-4-methyl-3,4-dihydro-2H-benzo[b][1,4]oxazin-6-yl)acrylamide], with more than 2000 nM.
Take `C=CC(=O)Nc1ccc(OC(C)C2CCC(F)(F)CC2)c(F)c1` (centres unmarked) [Compound 30, N-(4-(1-(4,4-difluorocyclohexyl)ethoxy)-3-fluorophenyl)acrylamide]: the IC50 lay in the range of 250 to 500 nM.
Then `C=CC(=O)Nc1ccc(OCc2cccc(Cl)c2)c(F)c1` [Compound 90, N-(4-((3-chlorobenzyl)oxy)-3-fluorophenyl)acrylamide], with not above 250 nM; and `Fc1cc(-c2nnn[nH]2)ccc1OCC1CCC(F)(F)CC1` [Compound 29, 5-(4-((4,4-difluorocyclohexyl)methoxy)-3-fluorophenyl)-1H-tetrazole], with 500 to 2000 nM; and `C=CC(=O)Nc1ccc(OCc2cc(F)cc(F)c2)c(F)c1` [Compound 97, N-(4-((3,5-difluorobenzyl)oxy)-3-fluorophenyl)acrylamide], with 250 to 500 nM.
To `C=CC(=O)Nc1ccc(OCc2cnccc2Cl)c(F)c1` [Compound 57, N-(4-((4-chloropyridin-3-yl)methoxy)-3-fluorophenyl)acrylamide] belongs more than 2000 nM.
To `C=CC(=O)Nc1ccc(OCc2cccc(C#N)c2)c(F)c1` [Compound 92, N-(4-((3-cyanobenzyl)oxy)-3-fluorophenyl)acrylamide] belongs 500 to 2000 nM; to `C=CC(=O)Nc1ccc(OCc2ccc(C(F)(F)F)cc2Cl)c(F)c1` [Compound 81, N-(4-((2-chloro-4-(trifluoromethyl)benzyl)oxy)-3-fluorophenyl)acrylamide], more than 2000 nM; to `C=CC(=O)Nc1ccc(OCc2cccc(F)c2)cc1OC` [Compound 7, N-(4-((3-fluorobenzyl)oxy)-2-methoxyphenyl)acrylamide], not above 250 nM.
`C=CC(=O)Nc1ccc(OCc2ccc(C(=O)OC)nc2)c(F)c1` [Compound 70, methyl 5-((4-acrylamido-2-fluorophenoxy)methyl)picolinate]: the half-maximal inhibitory concentration (IC50) is more than 2000 nM.
Then `C=CC(=O)Nc1ccc(OCc2cnc(C)s2)c(F)c1` [Compound 64, N-(3-fluoro-4-((2-methylthiazol-5-yl)methoxy)phenyl)acrylamide], with more than 2000 nM.
With `C=CC(=O)Nc1ccc(OCc2c(Cl)cccc2Cl)c(F)c1` [Compound 86, N-(4-((2,6-dichlorobenzyl)oxy)-3-fluorophenyl)acrylamide], the IC50 was more than 2000 nM.
To `C=CC(=O)Nc1ccc(OCc2ccccc2)c(F)c1` [Compound 52, N-(4-(benzyloxy)-3-fluorophenyl)acrylamide] belongs 250 to 500 nM; to `C=CC(=O)Nc1ccc(OCc2ccnc(C#N)c2)c(F)c1` [Compound 67, N-(4-((2-cyanopyridin-4-yl)methoxy)-3-fluorophenyl)acrylamide], more than 2000 nM.
To `C=CC(=O)Nc1ccc2c(c1)CCC(c1cccc(F)c1)O2` (centres unmarked) [Compound 5, N-(2-(3-fluorophenyl)chroman-6-yl)acrylamide] belongs more than 2000 nM; to `C=CC(=O)Nc1ccc2c(c1)NCC(c1cccc(F)c1)O2` (centres unmarked) [Compound 10, N-(2-(3-fluorophenyl)-3,4-dihydro-2H-benzo[b][1,4]oxazin-6-yl)acrylamide], more than 2000 nM.
Then `C=CC(=O)Nc1ccc(N(Cc2cccc(F)c2)CC2CC2)c(F)c1` [Compound 17, N-(4-((cyclopropylmethyl)(3-fluorobenzyl)amino)-3-fluorophenyl)acrylamide], with not above 250 nM; and `C=CC(=O)Nc1ccc(OCc2cccc(F)c2)cc1` [Compound 44, N-(4-((3-fluorobenzyl)oxy)phenyl)acrylamide], with more than 2000 nM.
